Test results published in patent US5382670A, “Platelet activating factor antagonists” (priority 1993, dated 1995).
Counter-ions that a name gives are not always drawn.

These compounds were tested against PAF receptor (Oryctolagus cuniculus, UniProt G1TEI7) (assay: PAF receptor binding assay: inhibition of specific [3H]C18-PAF binding to rabbit platelet membranes). Details: 0.6 nM [3H]C18-PAF, 60 min, 22-23 °C, Ki from IC50 (Cheng and Prusoff), read-out: Ki (PAF Receptor Binding Activity).
Experimental: The ability of representative compounds of the present invention to inhibit PAF activity was determined in an in vitro test using the following method.
Citrated whole rabbit blood was obtained from Pel-Freez (Rogers, AR). Rabbit platelets were prepared by centrifugation and washing. The platelets were lysed by freeze-thawing and sonication; platelet membranes were prepared by centrifugation and washing. Final membrane preparations were stored frozen in 10 mM Tris/5 mM MgCl2 /2 mM EDTA (TME buffer, pH 7.0) with 0.25M sucrose added for membrane stabilization.
The standard PAF receptor binding assay contained 10 μg platelet membrane protein, 0.6 nM [^3 H]C18 -PAF (from Amersham or New England Nuclear; specific activity 120-180 Ci/mmol), with and without test compound, in "binding buffer" consisting of TME with 0.25% bovine serum albumin added (Sigma, RIA grade). The final volume of the assay was 100 μl. The assay was conducted in Millititre-GV™ (Millipore Corp.) filtration plates; incubation time was for 60 minutes at room temperature (22°-23° C.). "Specific binding" was operationally defined as the arithmetic difference between "total binding" of 0.6 nM [^3 H]C18 -PAF (in the abasence of added PAF) and "nonspecific binding" (in the presence of 1 μM PAF). After the prescribed incubation, platelet membranes were filtered under vacuum, and washed with 1 milliliter of "binding buffer". The filters were dried and removed. The bound radioactivity was quantitated with a Berthold TLC-Linear Analyzer model LB2842.
Dose-response curves of inhibition of specific [^3 H]C18 -PAF binding by test compounds were conducted in triplicate, with at least four doses covering the active range. Experiments were repeated at least once. IC50 values (concentration producing 50% inhibition) were determined by point-to-point evaluation. Ki values of inhibitory binding constants were calculated according to the method of Cheng and Prusoff [Biochem. Pharmacol. 22 (1973) 3099-3108] whereby [formula]
The values of Ki for representative compounds of the present invention appear in Table 1.

Chain of PAF receptor (G1TEI7 1-342): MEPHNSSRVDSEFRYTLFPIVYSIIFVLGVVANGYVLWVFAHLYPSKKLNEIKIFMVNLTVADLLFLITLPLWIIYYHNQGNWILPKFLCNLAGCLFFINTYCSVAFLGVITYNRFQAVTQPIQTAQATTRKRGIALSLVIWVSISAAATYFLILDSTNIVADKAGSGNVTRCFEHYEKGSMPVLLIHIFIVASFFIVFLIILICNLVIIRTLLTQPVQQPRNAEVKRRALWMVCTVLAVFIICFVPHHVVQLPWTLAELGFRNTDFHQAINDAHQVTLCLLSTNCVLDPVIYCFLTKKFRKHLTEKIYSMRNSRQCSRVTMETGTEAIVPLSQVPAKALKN

| Ki | SMILES |
| --- | --- |
| 2 nM | O=C(c1c[nH]c2cc(OCc3ccccc3)ccc12)C1CSC(c2cccnc2)N1 (stereo not shown) [Example 34, 6-phenylmethoxy-3-[2-(3-pyridinyl)thiazolid-4-oyl]indole] |
| 30 nM | O=C(c1cn(S(=O)(=O)c2ccccc2)c2ccccc12)C1CSC(c2cccnc2)N1 (stereo not shown) [Example 36, 1-phenylsulfonyl-3-[2-(3-pyridinyl)thiazolid-4-oyl]indole] |
| 1 nM | CN(C)C(=O)n1cc(C(=O)C2CSC(c3cccnc3)N2)c2ccccc21 (stereo not shown) [Example 38] |
| 4 nM | O=C(c1cn(C(=O)c2ccc(Cl)cc2)c2ccccc12)C1CSC(c2cccnc2)N1 (stereo not shown) [Example 44, 1-(4-chlorobenzoyl)-3-[2-(3-pyridinyl)thiazolid-4oyl]indole] |
| 3 nM | O=C(c1cn(C(=O)OCc2ccccc2)c2ccccc12)C1CSC(c2cccnc2)N1 (stereo not shown) [Example 45, 1-phenylmethoxycarbonyl-3-[2-(pyridinyl)thiazolid-4-oyl]indole oxalate] |
| 9 nM | CC(C)(C)C(=O)n1cc(C(=O)C2CSC(c3cccnc3)N2)c2ccccc21 (stereo not shown) [Example 47, 1-tert-butoyl-3-[2-(3-pyridinyl)thiazolid-4-oyl]indole] |
| 1 nM | CCN(CC)C(=O)n1cc(C(=O)C2CSC(c3cccnc3)N2)c2ccccc21 (stereo not shown) [Example 48, 1-diethylcarbamoyl-3-[2-(3-pyridinyl)thiazolid-4-oyl]indole] |
| 25 nM | CN(C(=O)n1cc(C(=O)C2CSC(c3cccnc3)N2)c2ccccc21)c1ccccc1 (stereo not shown) [Example 49, 1-(N-methyl, N-phenyl)-3-[2-(3-pyridinyl)thiazolid-4-oyl]indole] |
| 1 nM | O=C(c1c[nH]c2c(OCc3ccccc3)cccc12)C1CSC(c2cccnc2)N1 (stereo not shown) [Example 50, 7-phenylmethoxy-3-[2-(3-pyridinyl)thiazolid-4-oyl]indole] |
| 13 nM | CN(C)C(=O)n1cc(C(=O)C2CSC(c3cccnc3)N2)c2cccc(OCc3ccccc3)c21 (stereo not shown) [Example 51, 1-dimethylcarbamoyl)-7-phenylmethoxy-3-[2-(3-pyridinyl)thiazolid-4-oyl]indole oxalate] |
| 1 nM | CN(C)C(=O)n1cc(C(=O)C2CSC(c3cccnc3)N2)c2ccc(OCc3ccccc3)cc21 (stereo not shown) [Example 52, 1-dimethylcarbamoyl-6-phenylmethoxy-3-[2-(3-pyridinyl)thiazolid-4-oyl]indole] |
| 2 nM | O=C(c1cn(C(=O)N2CCOCC2)c2ccccc12)C1CSC(c2cccnc2)N1 (stereo not shown) [Example 55, 1-(4-morpholinocarbonyl)-3-[2-(3-pyridinyl)thiazolid-4-oyl]indole] |
| 18 nM | CCS(=O)(=O)n1cc(C(=O)C2CSC(c3cccnc3)N2)c2ccccc21 (stereo not shown) [Example 62, 1-ethylsulfonyl-3-[2-(3-pyridinyl)thiazolid-4-oyl]indole] |
| 88 nM | Cc1c(C(=O)C2CSC(c3cccnc3)N2)c2ccccc2n1C(=O)N1CCOCC1 (stereo not shown) [Example 64, 1-(1-morpholinocarbonyl)-2-methyl-3-[2-(3-pyridinyl)thiazolid-4-oyl]indole] |
| 9 nM | Cc1c(C(=O)C2CSC(c3cccnc3)N2)c2ccccc2n1C(=O)N(C)C (stereo not shown) [Example 65, 1-dimethylcarbamoyl-2-methyl-3-[2-(3-pyridyl)thiazolid-4-oyl]indole] |
| 36 nM | Cc1ccc2c(c1)c(C(=O)C1CSC(c3cccnc3)N1)c(C)n2C(=O)N1CCOCC1 (stereo not shown) [Example 68, 1-(4-morpholinocarbonyl)-2,5-dimethyl-3-[2-(3-pyridinyl)thiazolid-4-oyl]indole] |
| 13 nM | Cc1ccc2c(c1)c(C(=O)C1CSC(c3cccnc3)N1)c(C)n2C(=O)N(C)C (stereo not shown) [Example 69, 1-dimethylcarbamoyl-2,5-dimethyl-3-[2-(3-pyridinyl)thiazolid-4oyl]indole oxalate] |
| 2 nM | O=C(c1c[nH]c2cc(Oc3ccc(F)cc3)ccc12)C1CSC(c2cccnc2)N1 (stereo not shown) [Example 70, 3-[2-(3-pyridinyl)thiazolid-4-oyl]-6-(4-fluorophenoxy)indole] |
| 2 nM | CN(C)C(=O)n1cc(C(=O)C2CSC(c3cccnc3)N2)c2ccc(Oc3ccc(F)cc3)cc21 (stereo not shown) [Example 71, 1-dimethylcarbamoyl-3-[2-(3-pyridinyl)thiazolid-4-oyl]-6-(4-fluorophenoxy)indole] |
| 10 nM | O=C(c1cn(C(=O)N2CCOCC2)c2cc(OCc3ccccc3)ccc12)C1CSC(c2cccnc2)N1 (stereo not shown) [Example 72, 1-(4-morpholinocarbonyl)-3-[2-(3-pyridinyl)thiazolid-4-oyl]-6-phenylmethoxyindole oxalate] |
| 8 nM | CCS(=O)(=O)n1cc(C(=O)C2CSC(c3cccnc3)N2)c2ccc(OCc3ccccc3)cc21 (stereo not shown) [Example 73, 1-ethylsulfonyl-3-[2-(3-pyridinyl)thiazolid-4-oyl]-6-phenylmethoxyindole] |
| 3 nM | O=C(c1c[nH]c2cc(OCc3ccc(F)cc3)ccc12)C1CSC(c2cccnc2)N1 (stereo not shown) [Example 74, 3-[2-(3-pyridinyl)thiazolid-4-oyl]-6-(4-fluorophenylmethoxy)indole] |
| 2 nM | CN(C)C(=O)n1cc(C(=O)C2CSC(c3cccnc3)N2)c2ccc(OCc3ccc(F)cc3)cc21 (stereo not shown) [Example 75, 1-dimethylcarbamoyl-3-[2-(3-pyridinyl)thiazolid-4-oyl]-6-(4-fluorophenylmethoxy)indole] |
| 30 nM | O=C(c1c[nH]c2cc(OCc3cccnc3)ccc12)C1CSC(c2cccnc2)N1 (stereo not shown) [Example 76] |
| 9 nM | O=C(c1c[nH]c2cc(C#Cc3ccccc3)ccc12)C1CSC(c2cccnc2)N1 (stereo not shown) [Example 77, 3-[2-(3-pyridinyl)thiazolid-4-oyl]-6-phenylethynylindole] |

| SMILES | Ki |
| --- | --- |
| CC(C)(C)OC(=O)n1cc(C(=O)C2CSC(c3cccnc3)N2)c2ccc(OCc3ccccc3)cc21 (stereo not shown) [Example 35, 1-tert-butoxycarbonyl-6-phenylmethoxy-3-[2-(3-pyridinyl)thiazolid-4-oyl]indole oxalate] | 1 nM |
| Cc1c(C(=O)C2CSC(c3cccnc3)N2)c2ccccc2n1C(=O)OC(C)(C)C (stereo not shown) [Example 40, 1-tert-butoxycarbonyl-2-methyl-3-[2-(3-pyridinyl)thiazolid-4-oyl]indole oxalate] | 10 nM |
| CC(C)(C)OC(=O)n1cc(C(=O)C2CSC(c3cccnc3)N2)c2cccc(OCc3ccccc3)c21 (stereo not shown) [Example 53, 1-tert-butoxycarbonyl-7-phenylmethoxy-3-[2-(3-pyridinyl)thiazolid-4-oyl]indole] | 1 nM |
| CC(C)(C)NC(=O)n1cc(C(=O)C2CSC(c3cccnc3)N2)c2ccccc21 (stereo not shown) [Example 54] | 9 nM |
| CC(C)(C)OC(=O)n1cc(C(=O)C2CSC(c3cccnc3)N2C=O)c2ccccc21 (stereo not shown) [Example 56, 1-tert-butoxycarbonyl-3-[2-(3-pyridinyl)-3-formylcarbonylthiazolid-4-oyl]indole] | 150 nM |
| CC(=O)N1C(C(=O)c2cn(C(=O)OC(C)(C)C)c3ccccc23)CSC1c1cccnc1 (stereo not shown) [Example 57, 1-tert-butoxycarbonyl-3-[2-(3-pyridinyl)-3-acetylthiazolid-4-oyl]indole] | 10 nM |
| CC(C)(C)OC(=O)n1cc(C(=O)C2CSC(c3cccnc3)N2C(N)=O)c2ccccc21 (stereo not shown) [Example 58, 1-tert-butoxycarbonyl-3-[2-(3-pyridinyl)-3-carbamoylthiazolid-4-oyl]indole] | 540 nM |
| Cc1ccc2c(c1)c(C(=O)C1CSC(c3cccnc3)N1)c(C)n2C(=O)OC(C)(C)C (stereo not shown) [Example 67, 1-tert-butoxycarbonyl-2,5-dimethyl-3-[2-[3-pyridinyl)thiazolid-4-oyl]indole oxalate] | 39 nM |

Same assay, conditions: Ki (PAF Receptor Binding Activity), 0.6 nM [3H]C18-PAF, 60 min, 22-23 °C, Ki from IC50 (Cheng and Prusoff)

| SMILES | Ki |
| --- | --- |
| CS(=O)(=O)n1cc(C(=O)C2CSC(c3cccnc3)N2)c2ccccc21 (stereo not shown) [Example 37, 1-methylsulfonyl-3-[2-(3-pyridinyl)thiazolid-4-oyl-]indole] | 15 nM |
| Cc1[nH]c2ccccc2c1C(=O)C1CSC(c2cccnc2)N1 (stereo not shown) [Example 39] | 23 nM |
| O=C(c1cn(Cc2ccccc2)c2ccccc12)C1CSC(c2cccnc2)N1 (stereo not shown) [Example 46, 1-phenylmethyl-3-[2-(3-pyridinyl)thiazolid-4-oyl]indole] | 50 nM |
| O=C(c1cn(CC(F)(F)F)c2ccccc12)C1CSC(c2cccnc2)N1 (stereo not shown) [Example 59, 1-trifluoroethyl-3-[2-(3-pyridinyl)thiazolid-4-oyl]indole] | 20 nM |
| CCOC(=O)Cn1cc(C(=O)C2CSC(c3cccnc3)N2)c2ccccc21 (stereo not shown) [Example 60, 1-ethoxycarbonylmethyl-3-[2-(3-pyridinyl)thiazolid-4-oyl]indole] | 2 nM |
| CCCn1cc(C(=O)C2CSC(c3cccnc3)N2)c2ccccc21 (stereo not shown) [Example 61, 1-propyl-3-[2-(3-pyridinyl)thiazolid-4-oyl]indole] | 8 nM |
| Cc1ccc2[nH]c(C)c(C(=O)C3CSC(c4cccnc4)N3)c2c1 (stereo not shown) [Example 66, 2,5-dimethyl-3-[2-[3-pyridinyl)thiazolid-4-oyl]indole oxalate] | 31 nM |
